# Experimental data taken from US7488730B2, “N-(1,2,3,4-tetrahydronaphthalen-1-yl)-4-phenyl-1-piperazinealkylamide derivatives, and therapeutic use thereof as 5-HT7 receptor ligands” (Universita Degli Studi Di Bari, priority 2005, dated 2009).
# Where a name gives a salt, the structure may show the parent alone. No end group written: not given here.
# Columns and labels:
# [1] = molecular target: T1, rat cloned 5-HT7 receptor (Rattus norvegicus, UniProt P32305); experiment: Radioligand binding assay ([3H]-LSD) at rat cloned 5-HT7Rs; details: for Ki: [3H]-LSD, rat recombinant 5-HT7R expressed in HEK-293 cells
# T1 construct: purchased PerkinElmer-NEN; host or cells: HEK-293
# Method: Rat recombinant serotonin 5-HT7R expressed in HEK-293 cells were purchased from PerkinElmer-NEN (Betsville, Md., USA).
# Radioligand Binding Assay at Rat Cloned 5-HT7Rs. Binding of [^3H]-LSD at rat cloned 5-HT7 receptor was performed according to a known method. In 1 mL of incubation buffer (50 mM Tris, 10 mM MgCl2 and 0.5 mM EDTA, pH 7.4) were suspended 30 μg of membranes, 2.5 nM [^3H]-LSD, the drugs or reference compound (six to nine concentrations). The samples were incubated for 60 min at 37° C. The incubation was stopped by rapid filtration on GF/A glass fiber filters (pre-soaked in 0.5% polyethylenimine for 30 min). The filters were washed with 3 ? 3 mL of ice-cold buffer (50 mM Tris, pH 7.4). Nonspecific binding was determined in the presence of 10 μM 5-CT. Approximately 90% of specific binding was determined under these conditions.
# [2] = molecular target: T2, 5-HT1A receptors (Rattus norvegicus, UniProt P19327); details: for Ki: read-out: Ki, nM 5-HT1A, [3H]-8-OH-DPAT, rat hippocampal membranes
# T2 sequence (P19327 1-422): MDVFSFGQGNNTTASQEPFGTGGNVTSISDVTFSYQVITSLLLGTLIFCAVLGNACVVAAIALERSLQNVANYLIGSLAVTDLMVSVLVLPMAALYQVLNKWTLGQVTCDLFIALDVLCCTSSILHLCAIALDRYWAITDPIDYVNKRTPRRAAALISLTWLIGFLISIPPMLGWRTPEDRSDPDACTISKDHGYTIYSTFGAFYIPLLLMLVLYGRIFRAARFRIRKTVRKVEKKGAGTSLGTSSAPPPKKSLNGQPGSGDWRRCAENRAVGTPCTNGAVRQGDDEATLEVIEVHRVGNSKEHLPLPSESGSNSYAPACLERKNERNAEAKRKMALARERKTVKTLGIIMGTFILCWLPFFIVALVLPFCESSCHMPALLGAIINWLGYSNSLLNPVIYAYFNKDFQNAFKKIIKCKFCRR
# Method: Radioligand Binding Assay at Rat Hippocampal Membranes 5-HT1A Receptors. Binding experiments were performed according to a known method. Rats were killed by decapitation, the brain was quickly removed, and the hippocampus was dissected. […] The homogenate was centrifuged at 48000 g for 15 min at 4° C. The supernatant was discarded, and the pellet was resuspended in 25 mL of buffer, then preincubated for 10 min at 37° C. The homogenate was centrifuged at 48000 g for 15 min at 4° C. The supernatant was discarded, and the final pellet was stored at −80° C. until used. […] For competitive inhibition experiments various concentrations of drugs studied were incubated. […] Samples were incubated at 37° C. for 20 min and then filtered on Whatman GF/B glass microfiber filters.
# Statistical Analysis. […] The value for the inhibition constant, Ki, was calculated by using the Cheng-Prusoff equation.
# [3] = molecular target: T3, 5-HT2A receptors (Rattus norvegicus, UniProt P14842)
# Method: (§1) Radioligand Binding Assay at Rat Cortex Membranes 5-HT2A Receptors. […] Rats were killed by decapitation, the brain was quickly removed, and the cortex was dissected. […] The homogenate was centrifuged at 2000 g for 10 min at 4° C. The supernatant was saved, and the pellet was resuspended in 25 mL of buffer. The surnatantes were collected and diluted 1:10 w/w with 10 mM Tris pH 7.4. The homogenate was centrifugated at 35000 g for 15 min at 4° C. The supernatant was discarded, and the final pellet was stored at −80° C. until used. […] For competitive inhibition experiments various concentrations of drugs studied were incubated. […] Samples were incubated at 37° C. for 15 min and then filtered on Whatman GF/B glass microfiber filters.
# (§2) Statistical Analysis. […] PRISM® program. The value for the inhibition constant, Ki, was calculated by using the Cheng-Prusoff equation.
# [4] = system: hamsters; experiment: Circadian phase shift in hamsters after injection; type: in vivo
# Source text: This provides evidence that no additional receptor subtype, such as the 5-HT1A receptor or the 5-HT5A receptor, is necessary for this effect.
# [5] = molecular target: 5-HT7 receptor (Cavia porcellus, UniProt P50407); experiment: Isolated guinea-pig ileum assay: relaxation of substance P-induced contraction
# Method: Isolated Guinea-Pig Ileum Assay. Guinea-pigs were anesthetized and then decapitated and the proximal ileum removed. […] Changes in tension of the tissue were recorded by Fort 10 Original WPI isometric transducer (2Biological Instruments, Italy) connected to a PowerLab/400 workstation. […] Tested compounds were added 3 min before substance P addition.
# The isolated guinea pig ileum was equilibrated for 75 min with antagonist before constructing concentration-response curves of tested compounds.
# Tissue responses were recorded as gram changes in isometric tension and expressed as percentage of reduction in the height of the contraction.
# Agonist potencies, expressed as EC50, were obtained from non-linear iterative curve fitting by [sequence] PRISM®.
# [6] = molecular target: T3, 5-HT2A receptors; experiment: Radioligand binding assay ([3H]-ketanserin) at rat cortex membranes 5-HT2A receptors
# Method: as §1, §2
# [7] = system: isolated guinea-pig ileum; experiment: Substance P contraction of isolated guinea-pig ileum (concentration-response); details: 100 nM
# Source text: Isolated Guinea-Pig Ileum Assay.
# T3 sequence (P14842 whole entry): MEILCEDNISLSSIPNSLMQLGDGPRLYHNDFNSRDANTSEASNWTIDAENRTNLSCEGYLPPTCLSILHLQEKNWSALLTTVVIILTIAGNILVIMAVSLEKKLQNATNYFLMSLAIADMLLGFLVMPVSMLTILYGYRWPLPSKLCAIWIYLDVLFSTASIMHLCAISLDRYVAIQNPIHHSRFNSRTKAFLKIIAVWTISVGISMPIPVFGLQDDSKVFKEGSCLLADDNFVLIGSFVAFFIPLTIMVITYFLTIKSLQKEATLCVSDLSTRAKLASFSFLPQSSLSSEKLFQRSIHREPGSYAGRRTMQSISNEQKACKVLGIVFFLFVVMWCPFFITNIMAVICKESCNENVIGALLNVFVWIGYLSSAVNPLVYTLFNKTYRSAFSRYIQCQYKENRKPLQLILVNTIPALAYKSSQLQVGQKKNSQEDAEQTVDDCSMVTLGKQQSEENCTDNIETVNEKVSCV
# T1 sequence (P32305 whole entry): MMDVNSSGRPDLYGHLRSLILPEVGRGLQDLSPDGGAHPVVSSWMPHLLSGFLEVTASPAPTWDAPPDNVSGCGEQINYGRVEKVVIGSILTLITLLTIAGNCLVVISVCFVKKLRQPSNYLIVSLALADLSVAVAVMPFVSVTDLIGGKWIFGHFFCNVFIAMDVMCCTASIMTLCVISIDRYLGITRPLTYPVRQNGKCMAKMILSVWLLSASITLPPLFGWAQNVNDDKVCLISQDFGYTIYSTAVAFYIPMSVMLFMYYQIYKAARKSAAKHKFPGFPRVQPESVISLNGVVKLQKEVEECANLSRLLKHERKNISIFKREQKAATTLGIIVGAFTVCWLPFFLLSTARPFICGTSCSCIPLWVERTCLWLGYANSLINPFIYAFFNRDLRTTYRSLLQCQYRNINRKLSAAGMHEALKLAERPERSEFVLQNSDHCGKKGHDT
# 5-HT7 receptor, sequence (P50407 whole entry): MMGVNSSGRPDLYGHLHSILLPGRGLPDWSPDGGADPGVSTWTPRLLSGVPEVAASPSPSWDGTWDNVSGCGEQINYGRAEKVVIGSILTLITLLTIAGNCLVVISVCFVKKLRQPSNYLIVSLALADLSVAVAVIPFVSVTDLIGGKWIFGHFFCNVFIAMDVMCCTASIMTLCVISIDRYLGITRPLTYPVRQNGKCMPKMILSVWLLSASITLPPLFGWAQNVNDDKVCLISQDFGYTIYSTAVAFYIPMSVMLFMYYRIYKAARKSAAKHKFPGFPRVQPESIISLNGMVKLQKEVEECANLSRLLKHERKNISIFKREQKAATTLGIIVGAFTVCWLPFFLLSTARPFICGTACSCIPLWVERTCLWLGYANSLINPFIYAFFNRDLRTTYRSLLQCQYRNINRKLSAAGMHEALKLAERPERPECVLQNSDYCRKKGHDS
compound,measurement,setting,value
CS(=O)(=O)c1ccccc1N1CCN(CCCCCC(=O)NC2CCCc3ccccc32)CC1 (stereo not drawn) (as salt: HCl) (hydrate or solvate) [Compound 45],melting point,,120 to 122 °C
COc1ccc2c(c1)C(NC(=O)CCCCCN1CCN(c3ccccc3OC)CC1)CCC2 (stereo not drawn) (as salt: HCl) [Compound 22],melting point,,175 to 178 °C
"COc1ccccc1N1CCN(CCCC(=O)NC2CCCc3cccc(OC)c32)CC1 (stereo not drawn) (as salt: HCl) [Compound 23, N-(8-Methoxy-1,2,3,4-tetrahydronaphthalen-1-yl)4-(2-methoxyphenyl)-1-piperazinebutanamide]",melting point,,131 to 133 °C
CC(=O)c1ccc(N2CCN(CCCCCC(=O)NC3CCCc4ccccc43)CC2)cc1 (stereo not drawn) (as salt: HCl) [Compound 42],melting point,,112 to 114 °C
NC(=O)c1ccccc1N1CCN(CCCCCC(=O)NC2CCCc3ccccc32)CC1 (stereo not drawn) [Compound 43],Ki,[1],229 ± 12 nM
same,Ki,[2],494 ± 35 nM
same,"5-HT2A, percentage in parentheses after >4000",[3],9%
"CSc1ccccc1N1CCN(CCCCCC(=O)NC2CCCc3ccccc32)CC1 (stereo not drawn) [Compound 44, 4-(2-Methylthiophenyl)-N-(1,2,3,4-tetrahydronaphthalen-1-yl)-1-piperazinehexanamide]",5-HT7R affinity (in words),[1],high affinity
same,Ki,[1],0.22 nM
same,circadian phase shift,[4]; microinjection into the dorsal raphe,cause phase shift advances
same,selectivity over 5-HT1A receptors,[2]; 5-HT7R versus 5-HT1A,200 fold
same,Ki,[2],52.7 ± 3.2 nM
same,EC50,[5],2560 nM
same,PA2 (vs SB-269970),[5]; in the presence of antagonist SB-269970 (0.1 μM-3 μM),7.70 ± 0.80
same,5-HT7 intrinsic activity (in words),[5]; isolated guinea-pig ileum,Full agonists
same,Emax,[5]; read-out: Maximal Effect %,100%
same,Schild plot,"[5]; vs SB-269970, p value in parentheses",0.9 (p < 0.0001)
same,selectivity over 5-HT2A receptors,[6]; 5-HT7R versus 5-HT2A,> 1000 fold
same,Ki,"[6]; read-out: Ki, nM 5-HT2A, [3H]-ketanserin, rat cortex membranes",326 ± 35 nM
CS(=O)(=O)c1ccccc1N1CCN(CCCCCC(=O)NC2CCCc3ccccc32)CC1 (stereo not drawn) [Compound 45],Ki,[1],298 ± 16 nM
same,Ki,[2],3120 ± 260 nM
same,"5-HT2A, percentage in parentheses after >4000",[3],38%
"CC1CCN(CC[C@H]2CCCN2S(=O)(=O)c2cccc(O)c2)CC1 [SB-26770-A, reference compound]",effect on phase shifts caused by compound 44,"[4]; microinjection into the dorsal raphe before compound 44, relative to vehicle pretreatment",significantly block phase shifts
"substance P: contracting agent of the guinea-pig ileum assay, purchased from Tocris Cookson (RPKPQQFFGLM; ends and bridges not checked; UniProt P20366 58-68, looked up)","contraction, % of maximum contraction",[7],80%
